Experimental data from ChEMBL document CHEMBL5335794, “Discovery of novel multifunctional ligands targeting GABA transporters, butyrylcholinesterase, β-secretase, and amyloid β aggregation as potential treatment of Alzheimer's disease” (Eur J Med Chem, 2023).
Active and inactive are the calls of the source. No cut-off for these calls is given here.

How the values were obtained:
GABA transporter 2 [1] = biological target: T1, GABA transporter 2 (Mus musculus, UniProt P31651); test: Inhibition of mouse GAT2 transfected in HEK293 cells assessed as reduction in [3H]-GABA uptake; format: cell-based
T1 sequence (P31651 whole entry): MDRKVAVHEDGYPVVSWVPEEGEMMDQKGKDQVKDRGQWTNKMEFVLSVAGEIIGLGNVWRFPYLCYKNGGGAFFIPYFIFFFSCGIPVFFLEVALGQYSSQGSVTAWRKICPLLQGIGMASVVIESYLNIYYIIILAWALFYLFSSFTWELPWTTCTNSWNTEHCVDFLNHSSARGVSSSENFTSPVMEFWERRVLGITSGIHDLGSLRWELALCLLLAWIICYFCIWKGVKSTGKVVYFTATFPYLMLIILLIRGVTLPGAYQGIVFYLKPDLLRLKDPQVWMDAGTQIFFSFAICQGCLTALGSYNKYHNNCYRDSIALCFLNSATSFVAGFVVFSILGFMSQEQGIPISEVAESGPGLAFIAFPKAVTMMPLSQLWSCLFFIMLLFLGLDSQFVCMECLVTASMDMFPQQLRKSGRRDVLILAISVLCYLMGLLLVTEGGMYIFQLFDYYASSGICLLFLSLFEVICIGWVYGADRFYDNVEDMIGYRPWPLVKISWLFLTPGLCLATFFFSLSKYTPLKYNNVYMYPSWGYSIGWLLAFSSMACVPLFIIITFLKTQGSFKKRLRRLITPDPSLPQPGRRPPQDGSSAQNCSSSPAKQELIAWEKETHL

GABA transporter 4 [2] = biological target: T2, GABA transporter 4 (Mus musculus, UniProt P31650); test: Inhibition of mouse GAT4 transfected in HEK293 cells assessed as reduction in [3H]-GABA uptake; format: cell-based
T2 sequence (P31650 whole entry): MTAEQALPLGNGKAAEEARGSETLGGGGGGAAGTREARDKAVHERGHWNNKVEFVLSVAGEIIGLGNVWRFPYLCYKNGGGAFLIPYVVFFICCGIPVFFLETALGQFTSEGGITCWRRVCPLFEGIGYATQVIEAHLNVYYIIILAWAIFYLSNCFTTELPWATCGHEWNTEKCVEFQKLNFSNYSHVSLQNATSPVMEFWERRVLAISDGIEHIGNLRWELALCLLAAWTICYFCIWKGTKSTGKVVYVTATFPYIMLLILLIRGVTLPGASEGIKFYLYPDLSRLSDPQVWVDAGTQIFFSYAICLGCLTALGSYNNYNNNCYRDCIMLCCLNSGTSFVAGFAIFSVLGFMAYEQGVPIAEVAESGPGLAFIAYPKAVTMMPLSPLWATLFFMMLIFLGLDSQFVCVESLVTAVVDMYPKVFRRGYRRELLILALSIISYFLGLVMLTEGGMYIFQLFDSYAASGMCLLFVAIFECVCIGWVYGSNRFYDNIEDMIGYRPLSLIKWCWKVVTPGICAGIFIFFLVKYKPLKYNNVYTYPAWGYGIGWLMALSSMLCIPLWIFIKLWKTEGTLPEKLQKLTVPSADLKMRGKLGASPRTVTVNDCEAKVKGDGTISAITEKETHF

[3] = biological target: T3, Sodium- and chloride-dependent GABA transporter 1 (Mus musculus, UniProt P31648); test: Inhibition of mouse GAT1 expressed in HEK293 cells assessed as reduction in [3H]-GABA uptake; format: cell-based
[4] = Inhibition of mouse GAT3 transfected in HEK293 cells assessed as reduction in [3H]-GABA uptake; format: cell-based
HepG2 = test: Cytotoxicity against human HepG2 cells assessed as reduction in cell viability at 0.1 to 1 uM incubated for 72 hrs by MTS assay; format: toxicity, cell-based; details: hepg2, 72 h, dose 0.1-1 µM
Beta-secretase 1 = Beta-secretase 1 (Homo sapiens, UniProt P56817)
Chain of Beta-secretase 1 (P56817 whole entry): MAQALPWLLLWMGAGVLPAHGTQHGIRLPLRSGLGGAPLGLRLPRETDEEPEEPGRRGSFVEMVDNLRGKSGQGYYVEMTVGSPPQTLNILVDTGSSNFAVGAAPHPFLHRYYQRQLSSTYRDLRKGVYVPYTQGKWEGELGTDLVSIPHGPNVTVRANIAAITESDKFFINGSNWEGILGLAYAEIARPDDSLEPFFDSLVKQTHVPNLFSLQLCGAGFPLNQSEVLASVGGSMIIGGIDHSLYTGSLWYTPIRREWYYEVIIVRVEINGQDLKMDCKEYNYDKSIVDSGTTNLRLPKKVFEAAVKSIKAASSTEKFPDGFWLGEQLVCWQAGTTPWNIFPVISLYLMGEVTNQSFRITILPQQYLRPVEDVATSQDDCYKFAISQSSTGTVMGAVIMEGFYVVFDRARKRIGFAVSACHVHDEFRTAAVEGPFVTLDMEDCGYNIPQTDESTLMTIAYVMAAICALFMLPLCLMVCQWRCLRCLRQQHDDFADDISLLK

[5] = biological target: Amyloid-beta precursor protein (Homo sapiens) (UniProt P05067); test: Inhibition of amyloid beta42 (unknown origin) aggregation expressed in Escherichia coli BL21 (DE3) at 10 uM measured every 5 mins by ThT fluorescence based assay relative to control
Chain of Amyloid-beta precursor protein (Homo sapiens) (P05067 whole entry): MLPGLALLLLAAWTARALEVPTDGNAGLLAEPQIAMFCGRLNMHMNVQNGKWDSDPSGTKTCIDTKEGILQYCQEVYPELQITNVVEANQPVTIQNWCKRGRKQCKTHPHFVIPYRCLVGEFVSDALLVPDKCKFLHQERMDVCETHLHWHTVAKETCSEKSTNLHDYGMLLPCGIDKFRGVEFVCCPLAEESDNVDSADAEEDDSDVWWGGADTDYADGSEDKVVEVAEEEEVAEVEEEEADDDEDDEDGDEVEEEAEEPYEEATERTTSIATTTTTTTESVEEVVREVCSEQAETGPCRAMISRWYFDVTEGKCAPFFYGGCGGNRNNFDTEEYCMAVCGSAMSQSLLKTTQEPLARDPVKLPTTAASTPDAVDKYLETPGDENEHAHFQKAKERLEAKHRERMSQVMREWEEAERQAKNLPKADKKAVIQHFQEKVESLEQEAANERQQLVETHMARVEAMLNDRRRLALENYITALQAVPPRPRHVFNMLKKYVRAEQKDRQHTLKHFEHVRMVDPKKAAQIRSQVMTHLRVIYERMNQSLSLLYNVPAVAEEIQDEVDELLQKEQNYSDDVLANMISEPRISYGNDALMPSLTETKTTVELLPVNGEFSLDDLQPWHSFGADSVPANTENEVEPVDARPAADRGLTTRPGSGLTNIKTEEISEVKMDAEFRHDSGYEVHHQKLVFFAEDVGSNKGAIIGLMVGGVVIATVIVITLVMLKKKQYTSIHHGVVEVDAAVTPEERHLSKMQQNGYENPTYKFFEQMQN

[6] = biological target: T3, Sodium- and chloride-dependent GABA transporter 1; test: Inhibition of mouse GAT1 transfected in HEK293 cells assessed as reduction in [3H]-GABA uptake preincubated for 25 mins followed by [3H]-GABA addition and measured after 4 mins by liquid scintillation counting analysis; format: cell-based; details: read-out: pIC50 (converted)
GABA transporter 2 [7] = biological target: T1, GABA transporter 2; test: Inhibition of mouse GAT2 transfected in HEK293 cells assessed as reduction in [3H]-GABA uptake preincubated for 25 mins followed by [3H]-GABA addition and measured after 10 mins by liquid scintillation counting analysis; format: cell-based; details: read-out: pIC50 (converted)
[8] = Inhibition of mouse GAT3 transfected in HEK293 cells assessed as reduction in [3H]-GABA uptake preincubated for 25 mins followed by [3H]-GABA addition and measured after 4 mins by liquid scintillation counting analysis; format: cell-based; details: HEK293; read-out: pIC50 (converted)
[9] = biological target: Amyloid-beta precursor protein (Homo sapiens) (UniProt P05067); test: Inhibition of soluble amyloid beta40 (unknown origin) aggregation assessed as fold reduction in nucleation ratio at 10 uM measured after 24 hrs by ThT fluorescence based assay
[10] = biological target: Amyloid-beta precursor protein (Homo sapiens) (UniProt P05067); test: Inhibition of amyloid beta40 (unknown origin) aggregation at 10 uM measured every 5 mins by ThT fluorescence based assay relative to control
[11] = biological target: T3, Sodium- and chloride-dependent GABA transporter 1; test: Inhibition of NO 711 marker binding to mouse GAT1 by LC-ESI-MS/MS based competitive MS binding assay
[12] = biological target: Amyloid-beta precursor protein (Homo sapiens) (UniProt P05067); test: Inhibition of soluble amyloid beta40 (unknown origin) aggregation assessed as lag time of amyloid polymerization at 10 uM measured after 24 hrs by ThT fluorescence based assay (reference value: […] min)
GABA transporter 4 [13] = biological target: T2, GABA transporter 4; test: Inhibition of mouse GAT4 transfected in HEK293 cells assessed as reduction in [3H]-GABA uptake preincubated for 25 mins followed by [3H]-GABA addition and measured after 4 mins by liquid scintillation counting analysis; format: cell-based; details: read-out: pIC50 (converted)
[14] = biological target: Amyloid-beta precursor protein (Homo sapiens) (UniProt P05067); test: Inhibition of soluble amyloid beta40 (unknown origin) aggregation assessed as nucleation constant at 10 uM measured after 24 hrs by ThT fluorescence based assay (reference value: […] 10^-4/min)
Cholinesterase = Cholinesterase (Equus caballus, UniProt P81908)
Chain of Cholinesterase (P81908 whole entry): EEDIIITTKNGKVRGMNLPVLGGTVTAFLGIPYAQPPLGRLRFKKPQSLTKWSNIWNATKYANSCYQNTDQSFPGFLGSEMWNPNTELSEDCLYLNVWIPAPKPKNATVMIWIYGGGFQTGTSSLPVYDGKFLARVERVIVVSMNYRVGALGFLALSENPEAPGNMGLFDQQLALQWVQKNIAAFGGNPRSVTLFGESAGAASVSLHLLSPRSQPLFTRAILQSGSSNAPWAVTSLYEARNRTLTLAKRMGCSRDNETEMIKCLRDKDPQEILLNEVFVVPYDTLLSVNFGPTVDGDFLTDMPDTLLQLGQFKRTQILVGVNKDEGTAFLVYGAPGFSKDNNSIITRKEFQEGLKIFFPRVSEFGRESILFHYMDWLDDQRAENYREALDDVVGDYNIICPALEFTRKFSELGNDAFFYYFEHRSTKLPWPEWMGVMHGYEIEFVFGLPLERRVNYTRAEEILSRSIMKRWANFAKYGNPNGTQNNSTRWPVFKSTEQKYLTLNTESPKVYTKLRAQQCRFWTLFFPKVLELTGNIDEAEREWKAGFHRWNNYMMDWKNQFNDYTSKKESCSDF
Description: Inhibition of equine serum BuChE using butyrylthiocholine iodide as substrate preincubated for 5 mins followed by substrate addition and measured after 5 mins by DTNB reagent based Ellman's method

[15] = biological target: Acetylcholinesterase (Electrophorus electricus) (UniProt O42275); test: Inhibition of electric eel AChE using acetylthiocholine iodide as substrate at 10 uM preincubated for 5 mins followed by substrate addition and measured after 5 mins by DTNB reagent based Ellman's method relative to control; details: time 10.0 min
Chain of Acetylcholinesterase (Electrophorus electricus) (O42275 24-633 limits assumed): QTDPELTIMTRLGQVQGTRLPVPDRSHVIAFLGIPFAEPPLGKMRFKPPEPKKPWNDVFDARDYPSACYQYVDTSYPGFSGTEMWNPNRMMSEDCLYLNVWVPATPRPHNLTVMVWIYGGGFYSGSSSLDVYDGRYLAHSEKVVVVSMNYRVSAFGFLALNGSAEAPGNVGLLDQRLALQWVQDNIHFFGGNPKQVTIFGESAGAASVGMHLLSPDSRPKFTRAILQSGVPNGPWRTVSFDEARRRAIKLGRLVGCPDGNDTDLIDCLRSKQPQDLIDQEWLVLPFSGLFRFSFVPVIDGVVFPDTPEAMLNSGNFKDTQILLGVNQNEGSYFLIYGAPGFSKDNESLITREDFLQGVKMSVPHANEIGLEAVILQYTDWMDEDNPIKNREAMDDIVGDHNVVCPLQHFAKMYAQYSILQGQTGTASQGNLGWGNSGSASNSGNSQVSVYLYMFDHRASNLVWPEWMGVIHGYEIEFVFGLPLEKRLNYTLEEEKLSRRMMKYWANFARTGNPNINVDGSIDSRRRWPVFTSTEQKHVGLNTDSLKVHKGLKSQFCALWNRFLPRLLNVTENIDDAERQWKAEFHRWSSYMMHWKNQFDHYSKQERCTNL

[16] = biological target: Amyloid-beta precursor protein (Homo sapiens) (UniProt P05067); test: Inhibition of soluble amyloid beta40 (unknown origin) aggregation assessed as elongation constant at 10 uM measured after 24 hrs by ThT fluorescence based assay (reference value: […] /M/min)
Mus musculus [17] = test: (§1) Cognitive enhancing activity in Albino Swiss (CD-1) mouse model of scopolamine induced cognitive dysfunction and amnesia assessed as prolongation of step-through latency in acquisition phase at 30 mg/kg, ip pretreated for 30 mins followed by scopolamine administration and measured after 30 mins by passive avoidance test; format: functional, organism-based; details: time 60.0 min
Mus musculus [18] = test: Cognitive enhancing activity in Albino Swiss (CD-1) mouse model of scopolamine induced memory deficits and amnesia assessed as increase in discrimination index at 30 mg/kg, ip pretreated for 30 mins followed by scopolamine administration and measured after 30 mins by Novel object recognition test; format: functional, organism-based; details: time 60.0 min
Mus musculus [19] = test: (§2) Cognitive enhancing activity in Albino Swiss (CD-1) mouse model of scopolamine induced cognitive dysfunction and amnesia assessed as prolongation of step-through latency in retention trail at 10 to 30 mg/kg, ip pretreated for 30 mins followed by scopolamine administration and measured after 30 mins by passive avoidance test; format: functional, organism-based; details: dose 10-30 mg/kg, time 60.0 min
[20] = biological target: Amyloid-beta precursor protein (Homo sapiens) (UniProt P05067); test: Inhibition of soluble amyloid beta40 (unknown origin) aggregation at 10 uM measured after 24 hrs by ThT fluorescence based assay relative to control
[21] = biological target: Amyloid-beta precursor protein (Homo sapiens) (UniProt P05067); test: Inhibition of soluble amyloid beta40 (unknown origin) aggregation assessed as end time of amyloid polymerization at 10 uM measured after 24 hrs by ThT fluorescence based assay (reference value: […] min)
[22] = biological target: Amyloid-beta precursor protein (Homo sapiens) (UniProt P05067); test: Inhibition of soluble amyloid beta40 (unknown origin) aggregation assessed as time of half-aggregation at 10 uM measured after 24 hrs by ThT fluorescence based assay (reference value: […] min)
HEK293 [23] = test: Cytotoxicity against HEK293 cells assessed as reduction in cell viability at 0.1 to 1 uM incubated for 72 hrs by MTS assay; format: toxicity, cell-based; details: human, hek293, 72 h, dose 0.1-1 µM
[24] = biological target: Amyloid-beta precursor protein (Homo sapiens) (UniProt P05067); test: Inhibition of soluble amyloid beta40 (unknown origin) aggregation assessed as inhibition of fibril elongation by measuring fold reduction in elongation ratio at 10 uM measured after 24 hrs by ThT fluorescence based assay
HEK293 [25] = test: Inhibition of mouse GAT3 transfected in HEK293 cells assessed as reduction in [3H]-GABA uptake by measuring residual activity at 100 uM relative to control; format: cell-based
[26] = biological target: T4, GABA transporter 2 (Mus musculus) (UniProt P31651); test: Inhibition of mouse GAT2 transfected in HEK293 cells assessed as reduction in [3H]-GABA uptake by measuring residual activity at 100 uM relative to control; format: cell-based
T4 sequence (whole entry): T1 sequence (P31651 whole entry)

Mus musculus [27] = test: as §2, with “10” for “10 to 30”; format: functional, organism-based; details: time 60.0 min
Mus musculus [28] = test: as §2, with “at” for “at 10 to”; format: functional, organism-based; details: time 60.0 min
[29] = biological target: Sodium- and chloride-dependent GABA transporter 1 (Mus musculus) (UniProt P31648); test: Inhibition of NO 711 marker binding to mouse GAT1 assessed as residual activity at 100 uM by LC-ESI-MS/MS based competitive MS binding assay relative to control
[30] = biological target: Cholinesterase (Equus caballus) (UniProt P81908); test: Mixed type inhibition of equine serum BuChE using varying concentrations of butyrylthiocholine iodide as substrate preincubated for 5 mins followed by substrate addition and measured after 5 mins by Ellman's method based Cornish-Bowden plot analysis; details: time 10.0 min
Chain of Cholinesterase (Equus caballus) (P81908 whole entry): as the sequence (P81908 whole entry) above

Mus musculus [31] = test: as §1, with “at 10” for “at 30”; format: functional, organism-based; details: time 60.0 min
[32] = biological target: Cholinesterase (Equus caballus) (UniProt P81908); test: Mixed type inhibition of equine serum BuChE using varying concentrations of butyrylthiocholine iodide as substrate preincubated for 5 mins followed by substrate addition and measured after 5 mins by Ellman's method based Lineweaver-Burk plot analysis; details: time 10.0 min

| Compound | IC50 (GABA transporter 4 [2]) | IC50 ([3]; read-out: IC50) | Activity (HepG2) | IC50 (Beta-secretase 1) | inhibition [5] | IC50 [6] | IC50 (GABA transporter 2 [7]) | IC50 [8] | inhibition [10] | TIME [12] | IC50 (GABA transporter 4 [13]) | K [14] | IC50 (Cholinesterase) | inhibition [15] | K [16] | Activity (Mus musculus [18]) | inhibition [20] | TIME [21] | T1/2 [22] | Activity (HEK293 [23]) | further results |
| --- | --- | --- | --- | --- | --- | --- | --- | --- | --- | --- | --- | --- | --- | --- | --- | --- | --- | --- | --- | --- | --- |
| O=C(O)C1=CN(CC/C=C/c2ccccc2-c2ccccc2)CCC1 | 288 µM | 0.062 µM | – | – | – | – | – | – | – | – | – | – | – | – | – | – | – | – | – | – | IC50 (GABA transporter 2 [1]): 135 µM; IC50 ([3]; read-out: pIC50 (converted)): 0.162 µM; IC50 [4]: 324 µM |
| CN(CCOCCN1c2ccccc2Sc2ccccc21)C(CCN)C(=O)NCc1ccc(Cl)cc1 (configuration not stated) | – | – | Non-Toxic | 1.57 µM | 34.6% | 9.77 µM | 12.3 µM | 6.31 µM | 98.5% | 2.91 h | 12 µM | 4.04 10^-4/min | 0.559 µM | 42% | 74.1 M⁻¹ s⁻¹ | Active | 85.5% | 6.46 h | 4.68 h | Non-Toxic | fold change (FC) [9]: 11; Ki [11]: 45.7 µM; Activity (Mus musculus [17]): Active; Activity (Mus musculus [19]): inactive; fold change (FC) [24]: 2 |
| O=C(O)C1=CN(CC/C=C/c2ccccc2-c2ccc(Cl)cc2Cl)CCC1 | 63.1 µM | 0.037 µM | – | – | – | – | – | – | – | – | – | – | – | – | – | – | – | – | – | – | Activity (HEK293 [25]): 91%; Activity [26]: 73% |
| CN(CCOCCn1c2ccccc2c2ccccc21)C(CCN)C(=O)NCc1ccccc1 (configuration not stated) | – | – | Non-Toxic | 9.42 µM | 31.7% | 30.9 µM | 15.8 µM | 15.1 µM | 78.9% | 0.792 h | 25.1 µM | 1.34 10^-4/min | 0.173 µM | < 10% | 117 M⁻¹ s⁻¹ | inactive | 78.6% | 2.09 h | 1.44 h | Non-Toxic | Activity (Mus musculus [27]): inactive; Activity (Mus musculus [28]): Active; Activity [29]: 71%; inhibition [30]: Active; Activity (Mus musculus [31]): Active; inhibition [32]: Active; fold change (FC) [24]: 2 |
